Settings: level of nitrite and sulfite ions in the water

nitrite and sulfite ions
Level at which the antiseptic effect is inadequate: less than 0.08 mg/L

From US7964104B2, “Active antiseptic water or active water-based fluid, and production method and apparatus for the same” (Japan Techno Co., Ltd., priority 2003, dated 2011)
